Data published in patent EP2488183B1, “Composition for inhibiting TGF-beta comprising imidazopurine derivatives” (Korea Institute of Radiological & Medical Sciences, priority 2009, dated 2011).

Tests used:
TGF-β = TGF-β inhibitor screening, 3TP-pGL2 luciferase reporter in transformed HEK 293 cells; assay type: cell-based, human; conditions: compound added 2 h before 0.5 ng/ml TGF-β, FIGS. 3a, 3b
Excerpt: In order to screen an agent for inhibiting TGF-β cells stably transformed by luciferase-expressing plasmids were used to measure an effect on TGF-β activity.
A plasmid with a Smad binding site and a […] activator inhibitor (PAI) promoter, obtained from professor Carlos Arteaga at the University of Vanderbilt in US, was inserted into pGL2-Null reporter plasmid (Promega, U.S.A.). […] The plasmid was used to transform human embryonic kidney (HEK) 293 cells according to the manufacturer s specification, using Lipofectamine 2000 (Invitrogen, Calsbad, CA, USA), thereby constructing a system for screening an effect on TGF-β activity by measuring luciferase activity. The activity of luciferase was measured using a Dual Luciferase Assay kit (Promega, Medison, WI, USA). […]
The HEK 293 cells transformed were inoculated into a 96-well plate at 20,000 cells/ well in triplicates and then incubated under the condition as described above for 24 hours. Then, TGF-β was added thereto at concentrations of 0.5, 1, and 5 ng/ml and after 15-hour incubation, luciferase activity was measured. […]
By using the screening system as described above, a TGF-β inhibition effect was tested on 8,000 compounds in a compound library. […] Then, the luciferase activity was measured as described above. […]

HEK 293 cells = experiment: Cytotoxicity test, CCK-8 assay; assay type: cell-based, human; conditions: CCK-8, absorbance 450 nm, FIGS. 4a, 4b
Protocol: In order to confirm that the luciferase activity is inhibited due to TGF-β inhibitor, rather than apoptosis, a CCK-8 survival rate assay kit (Dojindo, Japan) was used and an absorbance was measured at a wavelength of 450 nm by using a spectrophotometer (Labsystems, U.S.A.) to count the number of cells. The shown values are average values obtained from three independent experiments.

HSC-T6 cells [1] = experiment: Serum-induced proliferation of hepatic stellate cells, CCK-8 assay; assay type: cell-based, human; conditions: added 2 h before serum, 48 h
Protocol: HSC-T6 cells, a stable cell line made by professor S.L. Friedman at Mount Sinai in U.S. A., were obtained and used as hepatic stellate cells (HSC), which are employed mainly as a subject for liver fibrosis. HSC-T6 cells were c under 5% CO2 at a temperature of 37°C in a DMEM supplemented with 10% FBS, 100 units/ml of penicillin, and 100 µg/ml of streptomycin. In order to identify whether compounds I and II directly affect proliferation of hepatic stellate cells, the incubation was performed in a serum-free medium for 24 hours and then the culture was treated with 1, 10, and 20 µM of the compounds I and II, 2 hours prior to addition of serum thereto. Subsequently, under the condition described above, the incubation was further performed for 48 hours and then a CCK-8 assay kit was used to measure cell viability. Absorbance was measured at a wavelength of 450 nm by using a spectrophotometer (Labsystems, U.S.A.) to count the number of cells.

HSC-T6 cells [2] = experiment: Western blotting of fibrosis markers in TGF-β-treated hepatic stellate cells; assay type: cell-based, human; conditions: HSC-T6, 0, 1, 5 and 10 µM added 2 h before TGF-β (5 ng/ml), 24 h; FIGS. 6a, 6b
Protocol: In addition, levels of α-smooth muscle actin (α-SMA) and extracellular matrix material fibronectin, which are typically used as a fibrosis molecular marker to identify fibrosis of hepatic stellate cells, were measured by western blotting. Two hours before the treatment with TGF-β(5 ng/ml), each of compounds I and II was added at a varying concentration (0, 1, 5 and 10 µM) to the HSC-T6 cells incubated under the conditions described above, and then, the HSC-T6 cells were incubated under 5% CO2, and at a temperature of 37°C. After 24-hour incubation, the HSC-T6 cells were dissolved in a RIPA buffer solution (50 mM Tris-Cl (pH7.4), 1% NP-40, 150 mM NaCl, 1 mM EDTA) including a protease inhibitor (1 mM PMSF, […] aprotinin, […] leupeptin, and 1 mM Na3VO4) to prepare cytoplasm fractions, and 4-12% gradient SDS-PAGE (Invitrogen) was performed on the cytoplasmic fractions to separate proteins. The proteins separated on the SDS-PAGE gel were transferred to a nitrocellulose membrane (BioRad, Hercules, CA, USA) and the membrane was blocked with 5% skim milk. Then, the membrane was treated with an anti-α-SMA antibody (Sigma, U.S.A.), an anti-fibronectin antibody (Santa Cruz, U.S.A.), and an anti-GAPDH antibody (Ab Frontier, Korea). […]

U87-MG = experiment: Apoptosis of brain cancer cells alone or with doxorubicin, CCK-8 viability assay; assay type: cell-based; conditions: 48 h; for apoptosis effect together with doxorubicin: compound added 2 h before doxorubicin 0.05 µM; for apoptosis: compound alone at 5 µM or more, FIGS. 9b, 9d
Protocol: TGF-βis known to have contrasting effects related to a tumor. That is, at an initial stage, TGF-β suppresses tumor growth, but at a latter stage, promotes metastasis or infiltration of a tumor. Thus, apoptosis of tumor cell lines caused by compound I and II, and apoptosis of tumor cell lines caused by compound I or II in combination with doxorubicin, an anti-cancer agent, were measured. […] The tumor cells were treated with compound I or II at the concentrations shown in FIG. 9, and 2 hours later, doxorubicin was added thereto. Then, the cells were incubated for 48 hours under the conditions described above and then, quantified using a CCK-8 viability assay kit (Dojindo, Japan).

H1299 cells = experiment: Apoptosis alone or with radiation, Annexin-PI staining and FACS assay; assay type: cell-based; conditions: 48 h; for effect on apoptosis together with radiation compared to compound or radiation alone: H1299, 6 Gy
Protocol: H1299, a cell strain of lung cancer, which is generally treated by radiation therapy, was treated with radiation in combination with compound I or II, and apoptosis thereof was measured. Compound I or II was added to H1299 cells inoculated to a 6 cm cell incubation plate as described in Example 3, and two hours later, 6 Gy of radioactive rays were irradiated thereto, and 48 hours later, apoptosis was measured by Annexin-PI staining and FACS assay. […] Table 2 [Table 2]

[3] = H1299, compound 5 µM + radiation (6 Gy) 2 h later

| Compound | TGF-β activity (luciferase activity) (TGF-β) | cell count (cytotoxicity) (HEK 293 cells) | proliferation of hepatic stellate cells (HSC-T6 cells [1]; 1, 10 and 20 µM, FIG. 5a) | expression of α-SMA and fibronectin (fibrosis markers) (HSC-T6 cells [2]) | apoptosis effect together with doxorubicin (U87-MG) | apoptosis (U87-MG) | effect on apoptosis together with radiation compared to compound or radiation alone (H1299 cells) | Apoptosis (%, average±SEM) (H1299 cells; [3]) [%] | Apoptosis (%, average±SEM) (H1299 cells; H1299, compound 5 µM alone) [%] | inhibition at 1 µM (HSC-T6 cells [1]; Homo sapiens, HSC-T6, 1 µM, FIG. 5b, read-out: proliferation of hepatic stellate cells inhibited) [%] | inhibition at 10 µM (HSC-T6 cells [1]; Homo sapiens, HSC-T6, 10 µM, FIG. 5b, read-out: proliferation of hepatic stellate cells inhibited) [%] | inhibition at 20 µM (HSC-T6 cells [1]; Homo sapiens, HSC-T6, 20 µM, FIG. 5b, read-out: proliferation of hepatic stellate cells inhibited) [%] |
| --- | --- | --- | --- | --- | --- | --- | --- | --- | --- | --- | --- | --- |
| Cc1cn2c(nc3c2c(=O)n(Cc2ccccc2Cl)c(=O)n3C)[nH]1 [compound I, 3-(2-chlorobenzyl)-1,7-dimethyl-1H-imidazo[2,1-f]purine-2,4(3H,8H)-dion] | inhibit TGF-β activity in a concentration-dependent way | no significant decrease in the cell count | almost completely blocked | concentration-dependently reduced | additive or synergistic apoptosis effects | did not occur | synergistic effect on apoptosis | 73.42±1.84 | 20.86±1.03 | – | – | – |
| Cc1[nH]c2nc3c(c(=O)n(Cc4c(F)cccc4Cl)c(=O)n3C)n2c1C [compound II, 3-(2-chloro-6-fluorobenzyl)-1,6,7-trimethyl-1H-imidazo[2,1-f]purine-2,4(3H,8H)-dion] | inhibit TGF-β activity in a concentration-dependent way | no significant decrease in the cell count | – | significantly reduced fibrosis markers | additive or synergistic apoptosis effects | did not occur | synergistic effect on apoptosis | 55.91±5.58 | 14.79±0.78 | 12 | 25 | 30 |
